Test results reported in the NIST ThermoML archive (doi:10.1016/j.jct.2012.04.025).
Numbers after ± are expanded uncertainties.

test: molar heat capacity at constant pressure; conditions: 298.15 K; 101.33 kPa; Liquid; High-precision drop calorimeter

| Compound | molar heat capacity at constant pressure |
| --- | --- |
| CCCCCCCCn1cc[n+](C)c1.O=S(=O)([N-]S(=O)(=O)C(F)(F)F)C(F)(F)F | 690.2 ± 7 J/K/mol |
| CCCC[n+]1ccn(C)c1.O=S(=O)([N-]S(=O)(=O)C(F)(F)F)C(F)(F)F | 565.9 ± 5 J/K/mol |
| CCn1cc[n+](C)c1.O=S(=O)([N-]S(=O)(=O)C(F)(F)F)C(F)(F)F | 504.8 ± 5 J/K/mol |
| CCCCCCCn1cc[n+](C)c1.O=S(=O)([N-]S(=O)(=O)C(F)(F)F)C(F)(F)F | 659.2 ± 6 J/K/mol |
| CCCCCCCCCCCCn1cc[n+](C)c1.O=S(=O)([N-]S(=O)(=O)C(F)(F)F)C(F)(F)F | 820.2 ± 8 J/K/mol |
| CCCCCCCCCCn1cc[n+](C)c1.O=S(=O)([N-]S(=O)(=O)C(F)(F)F)C(F)(F)F | 754.5 ± 7 J/K/mol |
| CCCCCC[n+]1ccn(C)c1.O=S(=O)([N-]S(=O)(=O)C(F)(F)F)C(F)(F)F | 629.4 ± 6 J/K/mol |
| CCCn1cc[n+](C)c1.O=S(=O)([N-]S(=O)(=O)C(F)(F)F)C(F)(F)F | 534.9 ± 5 J/K/mol |
| CCCCCn1cc[n+](C)c1.O=S(=O)([N-]S(=O)(=O)C(F)(F)F)C(F)(F)F | 595.6 ± 6 J/K/mol |
